Data on one compound can be found in paper PMC9605374 (Marine Drugs, 2022).

Experiment [1] has as its system 22Rv1 cells. The experiment in a line: Drug combination study NB with MAPK inhibitors, MTT assay, SynergyFinder 2.0. To be noted: Homo sapiens, 22Rv1, 24 h, 24 h; for inhibition at 0.8 µM: 22Rv1, NB alone 0.8 μM; for inhibition at 3.1 µM: 22Rv1, NB alone 3.1 μM; for inhibition at 12.5 µM: 22Rv1, NB alone 12.5 μM; for inhibition at 50 µM: 22Rv1, NB alone 50 μM. The class given is cell-based. From the text:
Whether activation of MAPKs contribute to cell death or survival depends not only on the cellular context, but also on the nature of the activating stimuli. Thus, to reveal the function of JNK1/2 and p38 in the anticancer effect of NB, we co-treated 22Rv1 cells with NB and specific inhibitors of the above-mentioned MAPKs. […] As MEK1/2 kinase directly and exclusively activates ERK1/2, PD98039 inhibitor is often used as an ERK1/2 inhibitor [38]. Thus, an inactivation of MEK1/2 leads solely to an inhibition of ERK1/2 [38]. Since the inhibitors themselves exert cytotoxic effects in cancer cells, we used a Chou–Talalay method to distinguish between synergism, additive effects, or antagonistic effects of the particular MAPK inhibitor on the compound bioactivity. For this, using an MTT assay, we determined a cytotoxic effect on various concentrations of NB, MAPK inhibitors, and their combinations in 22Rv1 cells. The viability data were further analyzed using the SynergyFinder v. 2.0 software (Network Pharmacology for Precision Medicine in the Research Program of System Oncology, Faculty of Medicine at University of Helsinki, Helsinki, Finland) and a Zero interaction potency (ZIP) reference model (Figure 7).
The experiments were carried out as previously reported. […] 22Rv1 cells (6 × 10^3 cells/well in 96-well plates) were simultaneously treated with NB and docetaxel; or pretreated with MAPK inhibitors for 1 h following treatment with NB in the total media volume of 100 µL/well. Following 24 h of incubation, the viability of the cells treated with individual drugs as well as their combinations was determined using MTT assay. […] Red areas (positive δ-values) and green areas (negative δ-values) indicate synergism and antagonism, respectively.

Experiment [2] concerns PC3-DR. The experiment in a line: MTT assay, cell viability. The class given is cell-based, human. From the text: To examine the anticancer potential and selectivity of NB, we used a panel of six human prostate cancer cell lines, harboring different levels of treatment resistance to representatively reflect the heterogeneity of the disease. […] Additionally, four human noncancer cells lines were utilized in order to determine the selectivity of NB towards prostate cancer cells, i.e., prostate noncancer PNT2 and RWPE-1 cells, human embryonic kidney HEK 293T cells, and human fibroblasts MRC-9. The different cell lines were treated with NB and the cell viability was examined using MTT assay (Figure 1). The mean IC50 of NB and docetaxel (used as a reference substance) in noncancerous cell lines was divided by the mean IC50 in the prostate cancer cell lines to determine the selectivity index (SI).
The MTT assay was used to monitor the effect of the drugs on cell viability in terms of metabolic activity, as previously reported. First, preincubation of the cells in 96-well plates (6 × 10^3 cells/well in 100 μL/well) was performed overnight in the correspondent culture medium. Next, the medium was exchanged for fresh medium containing the investigated compounds or a vehicle (100 μL/well). Cells were then incubated for 48 h, unless otherwise stated. Then, 10 μL/well of 3-(4,5-dimethylthiazol-2-yl)-2,5-diphenyltetrazolium bromide reagent (MTT, 5 mg/mL) were added. After 2–4 h of additional incubation the media was removed, and the plates were dried. Finally, 50 μL/well of DMSO were added to solve the formed formazan crystals produced by the metabolic active cells and Infinite F200PRO reader (TECAN, Männedorf, Switzerland) was used to measure the cell viability. The results were proceeded with a GraphPad Prism software v.9.1.1 (GraphPad Software, San Diego, CA, USA). Cells treated with the solvent of the drugs alone were used as a control (100% alive cells). The effect of the drugs on cell viability is represented as IC50.

Usually inhibition stands for the relative decrease from the control value, in per cent. As a reminder, the IC50 is the concentration needed to halve the response being measured. Read a low IC50 as inhibition by little substance. As for `COc1ccc(C2SSC34CC5(O)C(Cl)C=CC(O)C5ON3C(=O)C2N(C)C4=O)c(O)c1OC` (centres unmarked) [NB, N-methylpretrichodermamide B], in experiment [1] (matrix with PD98059 (0 μM)), the inhibition at 0.8 µM was determined as 28.5%, the inhibition at 3.1 µM turned out to be 35.2%, the inhibition at 12.5 µM was 43.4% and the inhibition at 50 µM was 51.9%. Further, in experiment [1] (matrix with SB203580 (0 μM)), the inhibition at 0.8 µM is 29.1%, the inhibition at 3.1 µM turned out to be 33.3%, the inhibition at 12.5 µM amounted to 48.2% and the inhibition at 50 µM came to 54.9%. In addition, in experiment [1] (matrix with SP600125 (0 μM)), the inhibition at 0.8 µM came to 17.3%, the inhibition at 3.1 µM was determined as 25.2%, the inhibition at 12.5 µM was 40.5% and the inhibition at 50 µM was determined as 41%. Moreover, the “IC50 in PC3-DR compared to the parental PC3 cells” value in experiment [2] (48 h) was “twofold lower”. In experiment [2] (Homo sapiens, PC3-DR, 48 h of treatment, mean ± SD), this compound yielded an IC50 of 3.63 ± 1.03 µM.
